# In patent publication US20240415789A1, “CYCLOBENZAPRINE FOR TREATMENT OR PREVENTION OF SEXUAL DYSFUNCTION ASSOCIATED WITH MENTAL HEALTH CONDITIONS IN FEMALE PATIENTS” (Tonix Pharmaceuticals Holding Corp., priority 2021, published 2024):
# Counter-ions that a name gives are not always drawn. Like-named read-outs stand apart in the source and are kept apart here.
# Experiments:
# [1] = test system: female sexual functioning in females with military-related PTSD; details: military Phase 3, females 5.6 mg (N=8) vs placebo (N=16), 12 weeks
# Description: (§1) Methods: In this 12-week, multicenter, adaptive design, randomized controlled fixed-dose trial, 5.6 mg cyclobenzaprine HCl (2×2.8 mg sublingual tablets, comprising a 75%±2% cyclobenzaprine HCl and 25%±2% mannitol eutectic and a potassium phosphate dibasic anhydrous basifying agent) taken daily at bedtime was compared to placebo for the treatment of PTSD at 45 U.S. sites. […] A pre-planned interim analysis was conducted when about half the originally planned sample of 550 participants had outcome data.
# (§2) The modified intention-to-treat (mITT) population, which included all randomized subjects with at least one post-baseline CAPS-5, included 125 participants treated with 5.6 mg dose per day the above cyclobenzaprine HCl sublingual formulation and 127 participants on placebo were studied.
# Sexual functioning was measured by Changes in Sexual Functioning Questionnaire short-form (CSFQ-14) which is a validated 14-item measure (Keller, McGarvey, Clayton, 2006). Parallel gender-specific versions are administered to males (CSFQ-14-M) and females (CSFQ-14-F), and each sex was analyzed separately. In addition to a total sexual functioning score, there are five sub-scales: desire/frequency, desire/interest, arousal/excitement, orgasm/complete, and pleasure. The scales range from (never) to (every day) and higher scores reflect greater levels of sexual functioning.
# (§3) In the Phase 3 study in predominantly civilian PTSD, the inclusion criteria were broadened to include civilian participants with current PTSD, as determined by the CAPS-5. Accordingly, this study included 94% civilian trauma with a minimum baseline severity score of ≥33 on the CAPS-5. […] Thus, analyses were conducted on the interim analysis sample of 252 participants in the military Phase 3 study (89% male [n=225 M; n=27 F]; 100% military PTSD) and […] subjects in the civilian Phase 3 study (79% female [n=129 F; n=34 M]; 94% civilian PTSD).
# (§4) The CSFQ-14 is a validated 14-item measure (Keller, McGarvey, Clayton, 2006) that has male and female versions which were analyzed separately. In addition to a total sexual functioning score, there are five sub-scales: desire/frequency, desire/interest, arousal/excitement, orgasm/complete, and pleasure. The items range on 5-point Likert scale from (never) to (every day). Higher scores reflect greater levels of sexual functioning.
# [2] = test system: PTSD; details: all three trials (Phase 2, two Phase 3), 5.6 mg dose
# Description: (§5) Three randomized, placebo-controlled and double-blind clinical trials of the above described 5.6 mg cyclobenzaprine HCl sublingual formulation (2×2.8 mg tablets) were performed, a Phase 2 study and a Phase 3 study in military-related PTSD, and a Phase 3 study in predominantly civilian PTSD. […] The present retrospective analysis examined the activity of the cyclobenzaprine HCl sublingual formulation on the Changes in Sexual Functioning Questionnaire short form (CSFQ-14) in the two Phase 3 studies.
# [3] = Phase 2 study in military-related PTSD, drug and placebo groups
# Description: as §5
# [4] = test system: female sexual functioning in females with predominantly civilian PTSD; details: civilian Phase 3, female completers 5.6 mg (N=58) vs placebo (N=55), 12 weeks
# Description: as §5, §3, §4
# [5] = both Phase 3 studies
# Description: as §5, §3
# [6] = Description: as §1, §2
# [7] = test system: military-related PTSD; details: female subgroup (10 active, 17 placebo), 5.6 mg per day sublingual, after 12 weeks of treatment
# Description: as §1, §2
compound,measurement,setting,value
CN(C)CCC=C1c2ccccc2C=Cc2ccccc21 [cyclobenzaprine HCl],"CSFQ-14-F arousal/excitement subscale, Hedges' g vs placebo",[1],0.55
same,"CSFQ-14-F desire/frequency subscale, Hedges' g vs placebo",[1],0.46
same,"CSFQ-14-F desire/interest subscale, Hedges' g vs placebo",[1],0.63
same,"CSFQ-14-F orgasm/completion scale, effect vs placebo",[1],No effect
same,"CSFQ-14-F pleasure subscale, Hedges' g vs placebo",[1],0.54
same,"CSFQ-14-F total score, Hedges' g effect size vs placebo",[1],0.49
same,activity on clinician- and patient-rated global PTSD symptoms (CGI and PGIC),[2],encouraging activity
same,rates of adverse events related to sexual function,[3],very low rates
same,"CSFQ-14-F arousal/excitement subscale, Hedges' g vs placebo",[4],0.33
same,"CSFQ-14-F desire/frequency subscale, Hedges' g vs placebo",[4],0.21
same,"CSFQ-14-F desire/interest subscale, Hedges' g vs placebo",[4],0.23
same,"CSFQ-14-F orgasm/completion subscale, Hedges' g vs placebo",[4],0.29
same,"CSFQ-14-F pleasure subscale, Hedges' g vs placebo",[4],0.19
same,"CSFQ-14-F total score, Hedges' g effect size vs placebo",[4]; p=0.07,0.37
same,severity of oral hypoaesthesia,[5],never rated as severe
same,most frequent adverse event,[5]; 5.6 mg sublingual,oral hypoaesthesia
same,duration of oral hypoaesthesia post administration,[5]; generally transient,< 60 min
same,most common systemic adverse event,[5]; also never rated as severe,somnolence
same,severity of oral hypoaesthesia,[6]; military Phase 3,never rated as severe
same,participants with at least one AE leading to study discontinuation,"[6]; military Phase 3, 5.6 mg dose (placebo: two)",8 participants
same,most frequent adverse event,"[6]; military Phase 3, 5.6 mg sublingual daily at bedtime",oral hypoaesthesia
same,duration of oral hypoaesthesia post administration,"[6]; military Phase 3, generally transient",< 60 min
same,most common systemic adverse event,"[6]; military Phase 3, also never rated as severe",somnolence
same,observed mean improvement in CAPS-5 over placebo,[7],−9.1 units
